From ChEMBL document CHEMBL3991601, “The target landscape of clinical kinase drugs” (Science, 2017)
Calls of active or inactive are those of the source. For most assays here, no stated cut-off is given here; in the data, actives have a measured Kd and inactives only a lower limit.

Assays:
[1] = target: Calcium/calmodulin-dependent protein kinase type II subunit delta (Homo sapiens, UniProt Q13557)
[2] = target: Cyclin-dependent kinase 12 (Homo sapiens, UniProt Q9NYV4)
[3] = target: Cyclin-dependent kinase 4 (Homo sapiens, UniProt P11802)
[4] = target: Epithelial discoidin domain-containing receptor 1 (Homo sapiens, UniProt Q08345)
Ephrin type-A receptor 4 = Ephrin type-A receptor 4 (Homo sapiens, UniProt P54764)
Ephrin type-A receptor 4, sequence (P54764 whole entry): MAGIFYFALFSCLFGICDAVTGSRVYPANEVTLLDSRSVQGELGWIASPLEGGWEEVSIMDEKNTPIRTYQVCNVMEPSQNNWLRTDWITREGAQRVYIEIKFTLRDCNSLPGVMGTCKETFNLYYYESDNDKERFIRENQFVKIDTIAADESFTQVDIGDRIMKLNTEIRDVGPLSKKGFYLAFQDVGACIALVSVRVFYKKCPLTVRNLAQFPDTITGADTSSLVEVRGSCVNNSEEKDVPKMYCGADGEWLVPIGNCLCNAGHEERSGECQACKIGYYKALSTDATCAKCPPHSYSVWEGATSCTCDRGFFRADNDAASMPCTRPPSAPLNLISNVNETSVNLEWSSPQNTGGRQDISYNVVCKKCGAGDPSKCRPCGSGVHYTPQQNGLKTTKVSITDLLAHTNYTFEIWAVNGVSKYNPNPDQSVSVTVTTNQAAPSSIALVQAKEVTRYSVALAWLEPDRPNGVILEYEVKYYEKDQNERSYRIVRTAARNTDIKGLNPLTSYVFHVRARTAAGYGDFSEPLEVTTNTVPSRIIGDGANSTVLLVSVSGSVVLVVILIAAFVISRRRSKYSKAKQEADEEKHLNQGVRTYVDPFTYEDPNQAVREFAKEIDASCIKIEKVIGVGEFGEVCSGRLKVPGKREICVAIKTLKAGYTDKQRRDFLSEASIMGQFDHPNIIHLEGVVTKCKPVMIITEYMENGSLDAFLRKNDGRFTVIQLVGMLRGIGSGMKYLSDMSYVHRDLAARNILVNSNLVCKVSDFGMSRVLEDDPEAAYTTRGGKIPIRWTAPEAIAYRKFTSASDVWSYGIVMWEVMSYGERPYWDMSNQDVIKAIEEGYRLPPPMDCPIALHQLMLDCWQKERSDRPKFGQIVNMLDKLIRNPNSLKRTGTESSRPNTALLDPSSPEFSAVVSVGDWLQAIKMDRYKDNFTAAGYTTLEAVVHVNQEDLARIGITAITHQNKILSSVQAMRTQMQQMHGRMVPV

[5] = target: T1, Dual specificity mitogen-activated protein kinase kinase 3 (Homo sapiens, UniProt P46734)
T1 sequence (P46734 whole entry): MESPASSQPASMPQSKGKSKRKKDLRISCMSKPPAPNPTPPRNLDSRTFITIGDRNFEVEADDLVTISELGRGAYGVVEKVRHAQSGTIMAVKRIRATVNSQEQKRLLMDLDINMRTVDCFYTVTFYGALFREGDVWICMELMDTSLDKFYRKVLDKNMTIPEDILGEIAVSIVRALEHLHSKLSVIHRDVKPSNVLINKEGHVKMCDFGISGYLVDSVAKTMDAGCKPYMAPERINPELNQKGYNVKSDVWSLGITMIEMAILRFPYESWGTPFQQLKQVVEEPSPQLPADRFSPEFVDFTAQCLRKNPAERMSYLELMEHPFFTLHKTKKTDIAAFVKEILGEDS

[6] = target: Mitogen-activated protein kinase kinase kinase 4 (Homo sapiens, UniProt Q9Y6R4)
Mitogen-activated protein kinase kinase kinase 4, sequence (Q9Y6R4 whole entry): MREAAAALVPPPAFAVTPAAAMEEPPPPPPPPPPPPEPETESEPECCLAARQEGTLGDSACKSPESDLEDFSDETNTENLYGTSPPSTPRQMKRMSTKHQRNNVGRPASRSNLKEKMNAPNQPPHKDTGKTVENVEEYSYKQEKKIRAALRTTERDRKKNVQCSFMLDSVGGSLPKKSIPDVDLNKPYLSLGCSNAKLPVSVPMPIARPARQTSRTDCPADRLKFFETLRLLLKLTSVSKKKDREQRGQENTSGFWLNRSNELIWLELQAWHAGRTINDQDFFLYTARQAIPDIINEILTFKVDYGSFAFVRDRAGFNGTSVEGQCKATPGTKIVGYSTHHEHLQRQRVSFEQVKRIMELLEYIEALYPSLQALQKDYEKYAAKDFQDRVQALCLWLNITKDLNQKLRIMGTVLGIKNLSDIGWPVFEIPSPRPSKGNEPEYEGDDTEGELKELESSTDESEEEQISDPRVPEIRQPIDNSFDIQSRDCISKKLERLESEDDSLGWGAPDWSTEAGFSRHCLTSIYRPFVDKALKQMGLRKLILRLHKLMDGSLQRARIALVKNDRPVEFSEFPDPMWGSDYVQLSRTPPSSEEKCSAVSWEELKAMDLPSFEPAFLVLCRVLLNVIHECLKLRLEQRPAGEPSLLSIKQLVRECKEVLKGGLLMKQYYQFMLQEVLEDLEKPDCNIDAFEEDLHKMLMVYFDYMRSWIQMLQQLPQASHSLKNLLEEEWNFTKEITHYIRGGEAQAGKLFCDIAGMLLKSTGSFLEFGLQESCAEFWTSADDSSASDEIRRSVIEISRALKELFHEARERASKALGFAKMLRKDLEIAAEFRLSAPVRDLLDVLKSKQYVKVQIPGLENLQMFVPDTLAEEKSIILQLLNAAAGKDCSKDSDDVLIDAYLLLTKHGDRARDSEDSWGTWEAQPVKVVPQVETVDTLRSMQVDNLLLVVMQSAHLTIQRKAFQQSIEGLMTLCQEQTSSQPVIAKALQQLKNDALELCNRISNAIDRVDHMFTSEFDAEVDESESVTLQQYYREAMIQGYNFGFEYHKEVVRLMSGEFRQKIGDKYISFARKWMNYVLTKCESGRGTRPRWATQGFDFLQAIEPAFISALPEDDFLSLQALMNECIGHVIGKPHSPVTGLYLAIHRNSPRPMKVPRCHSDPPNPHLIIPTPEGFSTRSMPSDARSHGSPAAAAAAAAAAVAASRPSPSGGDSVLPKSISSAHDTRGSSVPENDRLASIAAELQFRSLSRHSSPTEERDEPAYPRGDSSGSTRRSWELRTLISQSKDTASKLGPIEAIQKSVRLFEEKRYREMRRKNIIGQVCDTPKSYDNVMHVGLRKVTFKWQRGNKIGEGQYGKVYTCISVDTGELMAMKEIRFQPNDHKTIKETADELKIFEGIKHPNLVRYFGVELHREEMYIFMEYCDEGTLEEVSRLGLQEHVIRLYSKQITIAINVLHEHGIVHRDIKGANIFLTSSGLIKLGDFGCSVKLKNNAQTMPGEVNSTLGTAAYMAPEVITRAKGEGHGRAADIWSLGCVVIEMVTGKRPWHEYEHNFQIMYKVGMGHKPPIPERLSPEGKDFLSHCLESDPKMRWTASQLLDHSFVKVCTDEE

[7] = target: Mitogen-activated protein kinase 9 (Homo sapiens, UniProt P45984)
[8] = target: Serine/threonine-protein kinase PAK 2 (Homo sapiens, UniProt Q13177)
Serine/threonine-protein kinase PAK 2, sequence (Q13177 whole entry): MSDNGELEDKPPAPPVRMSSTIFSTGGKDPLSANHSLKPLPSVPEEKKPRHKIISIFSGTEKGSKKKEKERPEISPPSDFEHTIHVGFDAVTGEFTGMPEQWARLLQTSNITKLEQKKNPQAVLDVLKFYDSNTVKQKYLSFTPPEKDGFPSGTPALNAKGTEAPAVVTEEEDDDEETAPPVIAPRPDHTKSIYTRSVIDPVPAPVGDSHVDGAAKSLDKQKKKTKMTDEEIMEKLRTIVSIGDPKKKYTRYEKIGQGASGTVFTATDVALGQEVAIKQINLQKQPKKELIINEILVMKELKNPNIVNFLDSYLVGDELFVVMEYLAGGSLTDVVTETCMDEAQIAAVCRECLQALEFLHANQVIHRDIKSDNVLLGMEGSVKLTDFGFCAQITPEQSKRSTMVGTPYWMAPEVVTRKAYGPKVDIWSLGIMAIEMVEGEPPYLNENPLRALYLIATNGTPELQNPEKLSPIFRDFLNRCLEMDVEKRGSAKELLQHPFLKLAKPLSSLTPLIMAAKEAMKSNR

[9] = target: cAMP-dependent protein kinase catalytic subunit alpha (Homo sapiens, UniProt P17612)
[10] = target: T2, Glycogen phosphorylase, brain form (Homo sapiens, UniProt P11216)
T2 sequence (P11216 whole entry): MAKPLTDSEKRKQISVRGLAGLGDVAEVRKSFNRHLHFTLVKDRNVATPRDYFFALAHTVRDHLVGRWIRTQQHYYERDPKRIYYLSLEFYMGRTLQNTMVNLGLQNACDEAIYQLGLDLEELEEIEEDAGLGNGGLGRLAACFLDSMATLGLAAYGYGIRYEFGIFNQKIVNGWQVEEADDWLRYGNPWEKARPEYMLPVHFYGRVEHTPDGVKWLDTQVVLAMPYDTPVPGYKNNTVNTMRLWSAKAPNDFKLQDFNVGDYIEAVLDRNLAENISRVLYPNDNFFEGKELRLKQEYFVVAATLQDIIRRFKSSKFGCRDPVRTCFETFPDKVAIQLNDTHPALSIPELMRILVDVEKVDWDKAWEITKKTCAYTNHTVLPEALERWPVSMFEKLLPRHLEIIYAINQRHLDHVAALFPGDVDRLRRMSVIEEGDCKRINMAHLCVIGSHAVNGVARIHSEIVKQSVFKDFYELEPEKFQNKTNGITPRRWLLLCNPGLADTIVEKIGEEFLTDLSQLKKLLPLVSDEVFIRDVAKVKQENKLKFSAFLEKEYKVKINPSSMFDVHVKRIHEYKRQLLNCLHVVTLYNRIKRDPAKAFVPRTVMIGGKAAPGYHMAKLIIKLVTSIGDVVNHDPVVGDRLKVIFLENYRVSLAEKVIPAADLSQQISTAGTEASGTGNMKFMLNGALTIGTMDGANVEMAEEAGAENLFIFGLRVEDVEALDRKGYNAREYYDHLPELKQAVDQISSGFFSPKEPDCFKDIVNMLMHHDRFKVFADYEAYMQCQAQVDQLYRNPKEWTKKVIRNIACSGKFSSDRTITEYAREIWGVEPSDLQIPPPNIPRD

[11] = target: Rho-associated protein kinase 2 (Homo sapiens, UniProt O75116)
DNA topoisomerase 2-beta = DNA topoisomerase 2-beta (Homo sapiens, UniProt Q02880)
[12] = target: Mitogen-activated protein kinase kinase kinase 20 (Homo sapiens, UniProt Q9NYL2)

Cyclin-dependent kinase 12, sequence (Q9NYV4 whole entry): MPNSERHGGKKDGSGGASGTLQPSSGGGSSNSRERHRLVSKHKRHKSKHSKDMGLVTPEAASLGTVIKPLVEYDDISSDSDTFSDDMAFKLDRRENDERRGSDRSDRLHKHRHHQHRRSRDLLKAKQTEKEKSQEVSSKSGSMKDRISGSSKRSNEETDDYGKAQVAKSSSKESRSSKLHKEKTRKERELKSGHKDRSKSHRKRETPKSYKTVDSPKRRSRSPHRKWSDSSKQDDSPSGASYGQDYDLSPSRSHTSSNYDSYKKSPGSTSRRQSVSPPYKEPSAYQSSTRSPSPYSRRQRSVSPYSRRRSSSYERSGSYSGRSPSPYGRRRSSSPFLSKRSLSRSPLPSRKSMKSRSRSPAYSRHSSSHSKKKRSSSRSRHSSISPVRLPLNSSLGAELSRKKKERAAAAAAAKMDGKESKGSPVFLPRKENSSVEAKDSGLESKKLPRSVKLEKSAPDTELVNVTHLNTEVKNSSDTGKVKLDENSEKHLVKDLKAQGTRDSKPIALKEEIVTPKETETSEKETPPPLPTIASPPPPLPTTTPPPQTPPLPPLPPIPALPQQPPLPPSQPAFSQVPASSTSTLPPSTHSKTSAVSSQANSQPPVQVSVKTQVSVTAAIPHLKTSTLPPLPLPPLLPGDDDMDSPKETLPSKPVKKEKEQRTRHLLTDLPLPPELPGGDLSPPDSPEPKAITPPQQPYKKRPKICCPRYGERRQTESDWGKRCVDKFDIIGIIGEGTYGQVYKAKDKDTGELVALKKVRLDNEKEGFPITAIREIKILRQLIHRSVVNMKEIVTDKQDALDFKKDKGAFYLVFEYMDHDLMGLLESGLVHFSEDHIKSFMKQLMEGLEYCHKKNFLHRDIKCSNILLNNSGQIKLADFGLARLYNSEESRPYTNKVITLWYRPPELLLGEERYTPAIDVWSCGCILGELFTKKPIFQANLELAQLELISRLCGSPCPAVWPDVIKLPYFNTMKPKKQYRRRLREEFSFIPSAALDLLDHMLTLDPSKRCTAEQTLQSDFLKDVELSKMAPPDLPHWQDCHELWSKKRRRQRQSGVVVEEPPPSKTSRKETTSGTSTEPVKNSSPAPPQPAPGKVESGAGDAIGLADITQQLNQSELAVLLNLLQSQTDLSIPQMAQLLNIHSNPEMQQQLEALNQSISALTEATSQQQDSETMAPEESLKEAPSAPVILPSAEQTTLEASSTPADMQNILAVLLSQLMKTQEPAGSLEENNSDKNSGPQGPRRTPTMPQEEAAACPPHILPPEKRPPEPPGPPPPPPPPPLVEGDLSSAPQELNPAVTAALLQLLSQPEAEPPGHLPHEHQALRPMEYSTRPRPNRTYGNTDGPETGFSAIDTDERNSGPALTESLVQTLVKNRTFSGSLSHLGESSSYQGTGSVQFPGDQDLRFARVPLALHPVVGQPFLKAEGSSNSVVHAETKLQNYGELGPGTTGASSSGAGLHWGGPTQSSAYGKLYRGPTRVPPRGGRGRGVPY
Calcium/calmodulin-dependent protein kinase type II subunit delta, sequence (Q13557 whole entry): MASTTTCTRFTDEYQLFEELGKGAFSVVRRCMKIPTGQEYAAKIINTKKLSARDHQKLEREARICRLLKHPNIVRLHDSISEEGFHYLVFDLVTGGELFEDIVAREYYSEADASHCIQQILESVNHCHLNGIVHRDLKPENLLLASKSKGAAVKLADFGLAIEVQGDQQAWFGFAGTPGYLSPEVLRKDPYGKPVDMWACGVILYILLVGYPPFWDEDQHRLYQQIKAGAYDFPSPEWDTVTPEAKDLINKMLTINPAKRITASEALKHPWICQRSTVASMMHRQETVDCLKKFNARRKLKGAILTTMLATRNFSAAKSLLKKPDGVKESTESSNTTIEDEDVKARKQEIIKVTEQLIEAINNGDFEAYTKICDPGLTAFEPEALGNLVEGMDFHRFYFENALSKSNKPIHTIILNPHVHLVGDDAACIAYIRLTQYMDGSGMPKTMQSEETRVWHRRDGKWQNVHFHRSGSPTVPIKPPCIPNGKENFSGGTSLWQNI

Row | Kd [1] | Kd [2] | Kd [3] | Kd [4] | Kd (Ephrin type-A receptor 4) | Kd [5] | Kd [6] | Kd [7] | Kd [8] | Kd [9] | Kd [10] | Kd [11] | Kd (DNA topoisomerase 2-beta) | Kd [12] | SMILES
1 | > 30 µM (inactive) | > 30 µM (inactive) | > 30 µM (inactive) | > 30 µM (inactive) | > 30 µM (inactive) | > 30 µM (inactive) | > 30 µM (inactive) | > 30 µM (inactive) | > 30 µM (inactive) | > 30 µM (inactive) | > 30 µM (inactive) | 18.3 µM (active) | > 30 µM (inactive) | > 30 µM (inactive) | Nc1ncnc2c1c(-c1cccc(OCc3ccccc3)c1)cn2[C@H]1C[C@@H](CN2CCC2)C1 [AEW-541]
2 | > 30 µM (inactive) | > 30 µM (inactive) | > 30 µM (inactive) | 0.008 µM (active) | > 30 µM (inactive) | > 30 µM (inactive) | 1.43 µM (active) |  | > 30 µM (inactive) | > 30 µM (inactive) | > 30 µM (inactive) | 2.4 µM (active) | > 30 µM (inactive) | > 30 µM (inactive) | CCn1cc(-c2ccnc3[nH]c(-c4cccc(CN(C)C)c4)cc23)c(-c2ccc(NC(=O)N(C)C)cc2)n1 [GSK-1070916]
3 |  | > 30 µM (inactive) |  |  |  |  |  |  |  |  | > 30 µM (inactive) |  | > 30 µM (inactive) |  | O=C(NOCCO)c1cc(CN2OCCCC2=O)c(F)c(F)c1Nc1ccc(I)cc1F [RO-4987655]

More lines, now with the values behind:

Row | SMILES | Kd [1] | Kd [2] | Kd [3] | Kd [4] | Kd (Ephrin type-A receptor 4) | Kd [5] | Kd [6] | Kd [7] | Kd [8] | Kd [9] | Kd [10] | Kd [11] | Kd (DNA topoisomerase 2-beta) | Kd [12]
4 | C[C@@H](Oc1cc(C(=O)Nc2ccc(C(=O)N3CCN(C)CC3)cc2)nnc1N)c1c(Cl)ccc(F)c1Cl | > 30 µM (inactive) | > 30 µM (inactive) | > 30 µM (inactive) | > 30 µM (inactive) | > 30 µM (inactive) | > 30 µM (inactive) | > 30 µM (inactive) | > 30 µM (inactive) | > 30 µM (inactive) | > 30 µM (inactive) | > 30 µM (inactive) | > 30 µM (inactive) | > 30 µM (inactive) | > 30 µM (inactive)
5 | CC(=O)c1cnc2ccc(-c3cc(Cl)c(O)c(Cl)c3)nc2c1N[C@H]1CC[C@H](CN(C)C)CC1 | > 30 µM (inactive) | > 30 µM (inactive) | > 30 µM (inactive) | 0.515 µM (active) |  | > 30 µM (inactive) | > 30 µM (inactive) | 0.364 µM (active) | > 30 µM (inactive) | > 30 µM (inactive) | > 30 µM (inactive) | > 30 µM (inactive) | > 30 µM (inactive) | 0.101 µM (active)
6 | C=CC(=O)Nc1cc2c(Nc3ccc(F)c(Cl)c3)ncnc2cc1C#CC(C)(C)N1CCN(C)CC1 [AV-412 FREE BASE] | > 30 µM (inactive) | > 30 µM (inactive) | > 30 µM (inactive) | > 30 µM (inactive) | > 30 µM (inactive) | > 30 µM (inactive) | > 30 µM (inactive) | > 30 µM (inactive) | > 30 µM (inactive) | > 30 µM (inactive) | > 30 µM (inactive) | > 30 µM (inactive) | > 30 µM (inactive) | > 30 µM (inactive)
7 | COc1cc([C@@H]2c3cc4c(cc3[C@H](O)[C@H]3COC(=O)[C@@H]23)OCO4)cc(OC)c1OC [AXL-1717] | > 30 µM (inactive) | > 30 µM (inactive) | > 30 µM (inactive) | > 30 µM (inactive) | > 30 µM (inactive) | > 30 µM (inactive) | > 30 µM (inactive) | > 30 µM (inactive) | > 30 µM (inactive) | > 30 µM (inactive) | > 30 µM (inactive) | > 30 µM (inactive) | > 30 µM (inactive) | > 30 µM (inactive)
8 | COc1c(OCCCN2CCOCC2)ccc2c1N=C(NC(=O)c1cnc(N)nc1)N1CCN=C21 [COPANLISIB] | > 30 µM (inactive) | > 30 µM (inactive) | > 30 µM (inactive) | > 30 µM (inactive) | > 30 µM (inactive) | > 30 µM (inactive) | > 30 µM (inactive) | > 30 µM (inactive) | > 30 µM (inactive) | > 30 µM (inactive) | > 30 µM (inactive) | > 30 µM (inactive) | > 30 µM (inactive) | > 30 µM (inactive)
9 | Cn1cc(C2=C(c3cn(C4CCN(Cc5ccccn5)CC4)c4ccccc34)C(=O)NC2=O)c2ccccc21 [ENZASTAURIN] |  | > 30 µM (inactive) |  |  |  |  |  |  |  |  | > 30 µM (inactive) |  | > 30 µM (inactive) | 
10 | Cc1nc2cc(-n3ncc(C(=O)c4cc5ccccc5[nH]4)c3N)ccc2[nH]1 [FGFR INHIBITOR DEBIO 1347] | > 30 µM (inactive) | > 30 µM (inactive) | > 30 µM (inactive) | > 30 µM (inactive) | > 30 µM (inactive) | > 30 µM (inactive) | > 30 µM (inactive) | > 30 µM (inactive) | > 30 µM (inactive) | > 30 µM (inactive) |  | > 30 µM (inactive) | > 30 µM (inactive) | > 30 µM (inactive)
11 | O=C(Nc1nc2cccc(-c3ccc(CN4CCS(=O)(=O)CC4)cc3)n2n1)C1CC1 [FILGOTINIB] | > 30 µM (inactive) | > 30 µM (inactive) | > 30 µM (inactive) | > 30 µM (inactive) | > 30 µM (inactive) | > 30 µM (inactive) | > 30 µM (inactive) | > 30 µM (inactive) | > 30 µM (inactive) | > 30 µM (inactive) | > 30 µM (inactive) | > 30 µM (inactive) | > 30 µM (inactive) | > 30 µM (inactive)
12 | Cc1cccc(-c2nn3c(c2-c2ccnc4ccc(C(N)=O)cc24)CCC3)n1 [GALUNISERTIB] | > 30 µM (inactive) | > 30 µM (inactive) | > 30 µM (inactive) | > 30 µM (inactive) | > 30 µM (inactive) | > 30 µM (inactive) | > 30 µM (inactive) | > 30 µM (inactive) | > 30 µM (inactive) | > 30 µM (inactive) | > 30 µM (inactive) | > 30 µM (inactive) | > 30 µM (inactive) | > 30 µM (inactive)
13 | CNC(=O)c1cccc2cc(Oc3ccnc4cc(OCC5(N)CC5)c(OC)cc34)ccc12 [LUCITANIB] | > 30 µM (inactive) | > 30 µM (inactive) | > 30 µM (inactive) | 0.014 µM (active) | > 30 µM (inactive) | > 30 µM (inactive) | > 30 µM (inactive) | > 30 µM (inactive) | > 30 µM (inactive) | > 30 µM (inactive) | > 30 µM (inactive) | > 30 µM (inactive) | > 30 µM (inactive) | > 30 µM (inactive)
14 | CNC(=O)c1nn(C)c2c1C(C)(C)Cc1cnc(Nc3ccc(N4CCN(C)CC4)cc3)nc1-2 [MILCICLIB] | > 30 µM (inactive) | > 30 µM (inactive) |  | 4.17 µM (active) | 8.13 µM (active) | > 30 µM (inactive) | 4.02 µM (active) | > 30 µM (inactive) | > 30 µM (inactive) | > 30 µM (inactive) | > 30 µM (inactive) | > 30 µM (inactive) | > 30 µM (inactive) | > 30 µM (inactive)
15 | C[C@@H](N)c1ccc(C(=O)Nc2ccnc3[nH]ccc23)cc1 [Y-39983] | > 30 µM (inactive) | > 30 µM (inactive) | > 30 µM (inactive) | > 30 µM (inactive) | > 30 µM (inactive) | > 30 µM (inactive) | > 30 µM (inactive) | > 30 µM (inactive) | > 30 µM (inactive) | 23.2 µM (active) | > 30 µM (inactive) |  | > 30 µM (inactive) | > 30 µM (inactive)
